Source: US20210251239A1 (priority 2018, published 2021)
Values after ≈ are worked out from the molar mass of the structure shown.

Columns and labels:
[1] = molecular target: Septoria nodorum; format: cell-based
[2] = tested on: Colletotrichum gleosporoides; assay: MTT cell viability assay for determination of IC50 for chemical fungicides; format: cell-based; conditions: read-out: IC50 for C. gleosporoides
Procedure: (§1) Assays were carried out in 1.5 mL microcentrifuge tubes. The indicated fungicides were dissolved in DMSO at a stock concentration of 1 mg/mL. Enzymes were desalted into 50 mM MES buffer, pH 6.0 using a 200 mL Sephadex G25 column with 9.5 mL/min flowrate before adding to the germination assay. […] The reaction mixture without fungicide served as a negative inhibition control, and a reaction mixture containing 0.2 mg/mL mannase acid or 20 mg/mL M-PEG (1,2-propanediol) served as a positive inhibition control. The spore germination mixture was incubated at 27° C. for 3 days. At the end of the incubation period, 200 μL of 3-(4,5-dimethylthiazol-2-yl)-2,5-diphenyltetrazolium bromide (MTT) dye was added to the existing 400 μL of assay culture and was incubated for another 3 hr at 27° C. in the dark. The tubes were then centrifuged, and the supernatants were discarded. To the residue left in the tubes, 200 μL of DMSO was added to dissolve the formazan formed by the live fungal cells. The tubes were vortexed and centrifuged again. 100 μL of the supernatant from each tube was transferred into a separate well in a 96-well microtiter plate and absorbance was measured at 540 nm. Inhibition of fungal germination and growth by enzymes was determined relative to the uninhibited control for samples without chemical fungicide, and relative to the 50% inhibited cultures for samples containing each of the chemical fungicides tested.
(§2) Each fungicide was dissolved in DMSO at 1 mg/mL concentration, then added to the germination assay at final concentrations of 0, 0.01, 0.02, 0.04, 0.06, 0.08 mg/mL.

[3] = tested on: Fusarium verticilloides; assay: as above; format: cell-based; conditions: for IC50: Fusarium, read-out: IC50 for F. verticilloides
Procedure: as §1, §2

[4] = molecular target: Fusarium graminearum; format: cell-based
[5] = molecular target: Fusarium virguliforme; format: cell-based
[6] = molecular target: Botrytis cinerea

catalase was tested, and the “EC50 Enzyme” value [1] was 285 mg/L and the IC50 plus chemistry [1] was over 500 mg/L.
OC(Cc1ccccc1Cl)(Cn1nc[nH]c1=S)C1(Cl)CC1 (centres unmarked) [Prothioconazole, prothioconazole] gave an IC50 [2] of 13 mg/L (≈ 37.8 µM) and an IC50 [3] of 22 mg/L (≈ 63.9 µM).
With propineb [Antracol (Propineb)] the “IC50 for F. verticilloides” value ([3]; 50% inhibition of germination and growth, fit IC50) was about 300 mg/L.
In the case of glucose oxidase, the “EC50 Enzyme” value [4] is reported as under 1 mg/L, the IC50 plus chemistry [4] is reported as under 1 mg/L and the “EC50 Enzyme” value [5] is reported as under 1 mg/L. The IC50 plus chemistry [5] was under 1 mg/L, the “EC50 Enzyme” value [1] was under 1 mg/L and the IC50 plus chemistry [1] was under 1 mg/L. The “EC50 Enzyme” value [6] was under 1 mg/L and the IC50 plus chemistry [6] was under 1 mg/L.
CON=C(C(=O)OC)c1ccccc1CON=C(C)c1cccc(C(F)(F)F)c1 [Trifloxystrobin, trifloxystrobin] gave an IC50 [2] of 18 mg/L (≈ 44.1 µM) and an IC50 [3] of 6 mg/L (≈ 14.7 µM).
In the case of lysozyme, the “EC50 Enzyme” value [5] is reported as over 500 mg/L and the IC50 plus chemistry [5] is reported as 2 mg/L.
